Measurements published in patent US9676782B2, “Substituted pyrazolo[1,5-a]pyrazines as negative allosteric modulators of metabotropic glutamate receptor 3” (Vanderbilt University, priority 2014, dated 2017).
Where two headings read alike, the source gives them in different places.

Experiments:
rat mGlu5 = rat mGlu5 (Rattus norvegicus (Rat), UniProt P31424); experiment: mGlu5 Ca2+ flux assay; type: cell-based; settings: for Fold selectivity (mGlu3 vs. mGlu5): ratio of rat mGlu5 EC50 or IC50 to rat mGlu3 IC50; for EC50 / IC50: read-out: rat mGlu5 EC50 or IC50; for IC50 / Emax at 30 µM: compound noted as NAM or partial antagonist (PAnt) at mGlu5; for IC50: glutamate EC80; for Emax at 30 µM: response at 30 μM as % of maximal glutamate response, read-out: rat mGlu5 Glu max (%)
In short: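 Transfected cells grown overnight at 37° C/5% CO2, dye-loaded, then 5 min in assay buffer at RT before Ca2+ flux read on FDSS7000. Fluorescence as F/F0 fold over basal, normalized to maximal glutamate response; EC50 from unconstrained 4-parameter logistic fit, triplicates weighted evenly.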

rat mGlu3 = rat mGlu3 (Rattus norvegicus (Rat), UniProt P31422); experiment: mGlu3 Ca2+ flux assay; type: cell-based; settings: for IC50: read-out: rat mGlu3 IC50; for remaining activity at 30 µM: amplitude of response at 30 μM test compound as % of maximal response to glutamate, read-out: rat mGlu3 Glu max (%)
In short: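 Cells expressing rat mGlu3 were grown overnight at 37° C. under 5% CO2, then loaded with dye. After dye removal they received 20 μL of assay buffer and sat 10 minutes at room temperature. Calcium flux was read on a Hamamatsu FDSS7000, and fluorescence was expressed as fold over basal and normalized to the maximal glutamate response.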

[1] = NAM potency, decrease of glutamate EC80 response, >30,000 = no measurable activity, >10,000 = no plateau

Sequence of rat mGlu3 (P31422 23-879): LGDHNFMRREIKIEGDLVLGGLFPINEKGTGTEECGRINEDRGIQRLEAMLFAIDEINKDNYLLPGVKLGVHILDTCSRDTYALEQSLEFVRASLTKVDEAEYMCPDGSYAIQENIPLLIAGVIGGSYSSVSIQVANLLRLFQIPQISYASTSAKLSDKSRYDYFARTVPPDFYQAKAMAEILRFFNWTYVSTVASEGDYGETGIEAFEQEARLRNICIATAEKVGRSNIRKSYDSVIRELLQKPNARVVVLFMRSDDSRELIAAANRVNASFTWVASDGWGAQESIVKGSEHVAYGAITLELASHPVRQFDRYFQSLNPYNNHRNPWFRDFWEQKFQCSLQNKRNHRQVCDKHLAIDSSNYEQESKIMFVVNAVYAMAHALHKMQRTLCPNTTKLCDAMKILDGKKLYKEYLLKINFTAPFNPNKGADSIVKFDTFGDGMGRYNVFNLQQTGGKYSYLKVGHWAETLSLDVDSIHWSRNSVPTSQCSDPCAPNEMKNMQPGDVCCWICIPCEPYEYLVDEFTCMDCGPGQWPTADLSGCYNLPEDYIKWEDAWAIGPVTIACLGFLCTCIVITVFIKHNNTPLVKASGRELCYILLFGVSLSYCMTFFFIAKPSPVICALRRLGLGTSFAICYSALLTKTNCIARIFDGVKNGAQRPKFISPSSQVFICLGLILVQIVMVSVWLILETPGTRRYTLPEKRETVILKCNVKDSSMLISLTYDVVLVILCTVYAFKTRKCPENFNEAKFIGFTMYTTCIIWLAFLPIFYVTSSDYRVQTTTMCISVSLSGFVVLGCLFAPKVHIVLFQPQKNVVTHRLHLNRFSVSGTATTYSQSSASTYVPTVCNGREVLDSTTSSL
Sequence of rat mGlu5 (P31424 21-1203): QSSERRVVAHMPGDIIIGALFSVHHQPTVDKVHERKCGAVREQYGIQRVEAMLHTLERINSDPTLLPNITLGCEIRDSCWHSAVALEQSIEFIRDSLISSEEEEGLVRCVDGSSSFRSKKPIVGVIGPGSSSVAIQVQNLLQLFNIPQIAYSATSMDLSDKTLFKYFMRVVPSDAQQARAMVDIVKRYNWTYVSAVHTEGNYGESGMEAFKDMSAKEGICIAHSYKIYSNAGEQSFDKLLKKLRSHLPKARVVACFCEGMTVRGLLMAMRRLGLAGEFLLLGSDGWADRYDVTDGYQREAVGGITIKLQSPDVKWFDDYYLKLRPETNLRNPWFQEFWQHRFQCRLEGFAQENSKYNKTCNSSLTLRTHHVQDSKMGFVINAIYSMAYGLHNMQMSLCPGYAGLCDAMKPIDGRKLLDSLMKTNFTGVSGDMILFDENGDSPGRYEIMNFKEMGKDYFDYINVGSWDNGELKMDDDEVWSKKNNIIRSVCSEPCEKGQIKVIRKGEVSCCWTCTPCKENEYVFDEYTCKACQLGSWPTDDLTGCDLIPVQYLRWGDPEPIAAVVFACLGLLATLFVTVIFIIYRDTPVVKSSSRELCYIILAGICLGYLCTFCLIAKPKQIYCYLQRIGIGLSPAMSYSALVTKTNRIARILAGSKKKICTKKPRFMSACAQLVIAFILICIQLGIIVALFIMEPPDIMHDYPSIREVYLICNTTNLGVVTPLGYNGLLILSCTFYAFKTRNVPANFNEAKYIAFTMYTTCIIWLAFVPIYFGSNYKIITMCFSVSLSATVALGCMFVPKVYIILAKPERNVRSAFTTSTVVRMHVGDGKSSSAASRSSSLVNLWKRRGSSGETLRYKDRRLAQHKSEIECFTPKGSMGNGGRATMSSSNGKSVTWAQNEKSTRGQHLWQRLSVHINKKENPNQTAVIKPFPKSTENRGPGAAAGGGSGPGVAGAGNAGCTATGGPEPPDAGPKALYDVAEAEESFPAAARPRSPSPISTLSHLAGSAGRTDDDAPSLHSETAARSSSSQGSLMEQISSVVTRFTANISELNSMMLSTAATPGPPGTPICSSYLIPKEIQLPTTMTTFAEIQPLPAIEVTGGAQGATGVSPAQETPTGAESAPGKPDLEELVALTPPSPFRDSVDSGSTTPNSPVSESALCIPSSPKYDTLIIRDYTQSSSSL

Compound	Fold selectivity (mGlu3 vs. mGlu5) (rat mGlu5)	EC50 (rat mGlu5)	IC50 (rat mGlu3; [1])	remaining activity at 30 µM (rat mGlu3)	IC50 (rat mGlu3)	IC50 (rat mGlu5)	Emax at 30 µM (rat mGlu5)
O=C1c2cc(CNc3ccc(OC(F)F)cc3F)nn2CCN1c1ccc(Cl)cn1 [Compound 148, 5-(5-chloropyridin-2-yl)-2-(((4-(difluoromethoxy)-2-fluorophenyl)amino)methyl)-6,7-dihydropyrazolo[1,5-a]pyrazin-4(5H)-one]	>32	> 30000 nM	930 nM	3.97%			
O=C1c2cc(CNc3ccc(OC(F)F)cc3F)nn2CCN1c1ccc(Cl)cc1F [Compound 149, 5-(4-chloro-2-fluorophenyl)-2-(((4-(difluoromethoxy)-2-fluorophenyl)amino)methyl)-6,7-dihydropyrazolo[1,5-a]pyrazin-4(5H)-one]	>3	> 30000 nM		25.8%	> 10000 nM		
O=C1c2cc(CNc3ccc(OC(F)F)cc3F)nn2CCN1c1cccc(Cl)c1 [Compound 150, 5-(3-chlorophenyl)-2-(((4-(difluoromethoxy)-2-fluorophenyl)amino)methyl)-6,7-dihydropyrazolo[1,5-a]pyrazin-4(5H)-one]	>21	> 30000 nM	1390 nM	2.97%			
O=C1c2cc(CNc3ccc(OC(F)F)cc3F)nn2CCN1c1ccccn1 [Compound 151, 2-(((4-(difluoromethoxy)-2-fluorophenyl)amino)methyl)-5-(pyridin-2-yl)-6,7-dihydropyrazolo[1,5-a]pyrazin-4(5H)-one]	>31	> 30000 nM	943 nM	1.14%			
O=C1c2cc(CNc3ccc(OC(F)F)cc3F)nn2CCN1c1cc(F)cc(F)c1 [Compound 152, 2-(((4-(difluoromethoxy)-2-fluorophenyl)amino)methyl)-5-(3,5-difluorophenyl)-6,7-dihydropyrazolo[1,5-a]pyrazin-4(5H)-one]	>28	> 30000 nM	1070 nM	2.23%			
O=C1c2cc(CNc3ccc(OC(F)F)cc3F)nn2CCN1c1ccccc1F [Compound 153, 2-(((4-(difluoromethoxy)-2-fluorophenyl)amino)methyl)-5-(2-fluorophenyl)-6,7-dihydropyrazolo[1,5-a]pyrazin-4(5H)-one]	>38	> 30000 nM	772 nM	2.29%			
O=C1c2cc(CNc3ccc(F)cn3)nn2CCN1c1ccc(F)cc1 [Compound 155, 5-(4-fluorophenyl)-2-(((5-fluoropyridin-2-yl)amino)methyl)-6,7-dihydropyrazolo[1,5-a]pyrazin-4(5H)-one]	>6.8		1460 nM	1.5%		> 10000 nM	11.3%
O=C1c2cc(CNc3ccccn3)nn2CCN1c1ccc(F)cc1 [Compound 156, 5-(4-fluorophenyl)-2-((pyridin-2-ylamino)methyl)-6,7-dihydropyrazolo[1,5-a]pyrazin-4(5H)-one]	>3.1		3190 nM	-1.17%		> 10000 nM	49.1%
Cc1cccc(NCc2cc3n(n2)CCN(c2ccc(F)cc2)C3=O)n1 [Compound 157, 5-(4-fluorophenyl)-2-(((6-methylpyridin-2-yl)amino)methyl)-6,7-dihydropyrazolo[1,5-a]pyrazin-4(5H)-one]	>9.3	> 30000 nM	3210 nM	-0.19%			
O=C1c2cc(CNc3ccc(Cl)cn3)nn2CCN1c1ccc(F)cc1 [Compound 158, 2-(((5-chloropyridin-2-yl)amino)methyl)-5-(4-fluorophenyl)-6,7-dihydropyrazolo[1,5-a]pyrazin-4(5H)-one]	4.02		602 nM	1.27%		2420 nM	73.6%
